Experimental data published in patent US12635689B2, “Antifungal compositions” (priority 2019, dated 2026).
Values after ≈ are worked out from the molar mass of the structure shown. “Also recorded” adds a separate entry of the source.

Assays:
Z. tritici mitochondria [1] = format: cell-based, Zymoseptoria tritici
Z. tritici cells [2] = format: cell-based, Zymoseptoria tritici
Daphnia magna [3] = assay: Daphnia magna 24 h toxicity (motility, escape response as indicator of mortality); format: in vivo
Description: Next, water fleas were treated for 24 h with various concentrations of all three SACCs and their motility behaviour and “escape response” monitored as an indicator of mortality. […] Higher amounts of both C18 SACCs eventually killed Daphnia magna, with C18-TMA+ being 1.8-times more toxic than C18-DMS+.

[4] = test system: Z. tritici (strain IPO323); parameters: species or system Zymoseptoria tritici on wheat; conditions: in vivo
[5] = test system: U. maydis plasma membrane; assay: Plasma membrane integrity with GFP-Sso1 marker (patches, photo-bleaching recovery); format: cell-based, Ustilago maydis
Daphnia magna [6] = assay: Daphnia magna 30 minute treatment, TMRM mitochondrial potential; format: in vivo; conditions: 1 μg/ml for 30 minutes
Description: In addition, the toxicity of C12-G+, C18-TMA+ and C18-DMS+ on the water flea Daphnia magna was investigated. This freshwater crustacean is well-established as a reporter organism in toxicity tests. Firstly, Daphnia magna was treated with 1 μg/ml of C12-G+, C18-TMA+ and C18-DMS+ for 30 minutes, followed by visualization of the mitochondrial potential by TMRM.

[7] = test system: C109 human skin fibroblasts; assay: Mitochondrial membrane potential in human skin fibroblasts
Z. tritici cells [8] = assay: Programmed cell death, CaspACE FITC-VAD-FMK with propidium iodide co-staining; format: cell-based, Zymoseptoria tritici; conditions: 24 h treatment
Z. tritici [9] = assay: Plasma membrane potential, DiBAC4(3) staining; format: cell-based, Zymoseptoria tritici; conditions: high concentrations
Description: (§1) Drug-induced leakage of ions from the cell was then determined by visualizing alterations of the membrane potential in C12-G+-treated cells, using the voltage-sensitive fluorescent probe bis-(1,3-dibutylbarbituric acid) trimethine oxonol, DiBAC4(3), which only stains depolarised cells. […] Therefore, the effect on the plasma membrane is most likely not the primary MoA of C12-G+ in fungi.

rice leaves [10] = conditions: in vivo
Z. tritici [11] = format: cell-based, Zymoseptoria tritici
wheat leaves = conditions: in vivo
rice leaves [12] = assay: Early plant defence response, diaminobenzidine (DAB) staining of H2O2; format: in vivo; conditions: 150 μg/ml SACC (salicylic acid 15 mM), 6 h
[13] = test system: C109 human skin fibroblasts; assay: Mitochondrial organization in human skin fibroblasts; format: cell-based
Description: The effects on mitochondria may account for the fungal specificity of C12-G+. To test this, mammalian skin C109 fibroblasts were treated with C12-G+ and monitored for its effect on mitochondrial shape and membrane potential.
Low toxicity to humans and in the environment is an important requirement for fungicides. The toxicity of C12-TPP+, C18-TMA+ and C18-DMS+ was therefore tested on C109 human skin fibroblasts. Mitochondrial organization and mitochondrial membrane potential were monitored after incubating with various concentrations of the compounds.

Z. tritici [14] = assay: Growth inhibition on agar plates supplemented with compound; format: cell-based, Zymoseptoria tritici
M. oryzae (strain Guy11) = format: in vivo, Magnaporthe oryzae on rice; conditions: rice; for protection at high concentrations: M. oryzae, high concentrations (75 and 100 μg/ml); for disease symptom development: sprayed 24 h before M. oryzae, 4 days, concentration-dependent
U. maydis mitochondria = assay: Mitochondrial depolarisation, TMRM staining; format: cell-based, Ustilago maydis; conditions: low amounts
cellular respiration = assay: Cellular oxygen consumption in cell suspensions; format: cell-based, U. maydis
[15] = test system: Z. tritici plasma membrane; format: cell-based, Zymoseptoria tritici
U. maydis [16] = assay: Growth inhibition on agar plates supplemented with compound; format: cell-based, Ustilago maydis
U. maydis [17] = assay: Live/dead staining in liquid culture; format: cell-based, Ustilago maydis
Z. tritici mitochondria [18] = format: cell-based, Zymoseptoria tritici; conditions: for mitochondrial depolarisation / inhibition of mitochondrial respiration: Z. tritici
U. maydis [19] = assay: Plasma membrane potential, DiBAC4(3) staining; format: cell-based, Ustilago maydis; conditions: high concentrations
Description: as §1

[20] = test system: Candida glabrata mitochondria; format: cell-based
Z. tritici cells [21] = assay: Programmed cell death, Annexin-V-fluorescein staining; format: cell-based, Zymoseptoria tritici
C. albicans [22] = format: cell-based, Candida albicans
Candida glabrata = format: cell-based
C. albicans [23] = format: cell-based, Candida albicans; remark: listed apart in the source
U. maydis [24] = format: cell-based, Ustilago maydis
C. glabrata = format: cell-based, Candida glabrata
[25] = test system: Candida albicans mitochondria; format: cell-based

CCCCCCCCCCCC[S+](C)C [C12-DMS+, dodecyldimethylsulfonium]
EC50 on Z. tritici (mitochondrial fragmentation) (Z. tritici mitochondria [1]): 7.39 mg/L | mROS levels (Z. tritici cells [2]): did not increase mROS levels

CCCCCCCCCCCCNC(=N)N [C12-G+, dodecylguanidinium]
concentration that killed all Daphnia magna (Daphnia magna [3]): ~1 µg/mL | disease symptom development [4]: Symptom development was inhibited | protection at high concentrations [4]: does not fully suppress; also recorded: did not fully suppress infection | formation of GFP-Sso1 patches at the cell periphery ([5]; high concentrations): induced the formation of GFP-Sso1 | lateral mobility of GFP-Sso1 ([5]; ≥10 μg/ml): significantly reduced the mobility of GFP-Sso1 | EC50 on Z. tritici (mitochondrial fragmentation) (Z. tritici mitochondria [1]): 6.63 mg/L (≈ 29.2 µM) | mitochondrial potential (TMRM) in Daphnia magna (Daphnia magna [6]): lost most signal | motility of Daphnia magna (Daphnia magna [6]): did not affect the motility | effect on mitochondrial membrane potential ([7]; C109 fibroblasts): modest effect | early apoptotic cells (CaspACE FITC-VAD-FMK positive, propidium iodide negative) (Z. tritici cells [8]): Only a few apoptotic cells | number of depolarised cells (DiBAC4(3)) (Z. tritici [9]): had only little effect | chlorosis or necrosis (phytotoxicity) (rice leaves [10]): none of the SACCs induced chlorosis or necrosis | cell viability (Z. tritici [11]; 30-45 minutes incubation, up to 100 μg/ml): most cells were still alive | cells killed (Z. tritici [11]; after 1 h at 100 μg/ml): > 80% | chlorosis or necrosis (phytotoxicity) (wheat leaves): none of the SACCs induced chlorosis or necrosis | peroxide production / DAB reaction (plant defence) (rice leaves [12]): slight peroxide production | effect on mitochondrial organization ([13]; beyond 20 μg/ml): caused organelle fragmentation and swollen cristae | effect on mitochondrial organization ([13]; concentrations up to 20 μg/ml): little effect on mitochondrial organization | Z. tritici more sensitive than U. maydis (growth inhibition) (Z. tritici [14]): ~4 times | EC50, concentration at 50% inhibition of growth (Z. tritici [14]; Z. tritici): 0.6 mg/L | protection at high concentrations (M. oryzae (strain Guy11)): does not fully suppress; also recorded: did not fully suppress infection | disease symptom development (M. oryzae (strain Guy11)): Symptom development was inhibited | mitochondrial depolarisation (TMRM) (U. maydis mitochondria): depolarised mitochondria | cellular oxygen consumption (cellular respiration): inhibits cellular respiration | EC50, effect on fungal plasma membrane ([15]; Z. tritici): 20 to 50 mg/L | lateral mobility of GFP-Sso1 ([15]; Z. tritici): this effect was not observed | Z. tritici less sensitive than U. maydis (GFP-Sso1 patches) ([15]; at 50 μg/ml): ~2 times | formation of GFP-Sso1 patches at the cell periphery ([15]; high concentrations, Z. tritici): induced the formation of GFP-Sso1 | EC50, concentration at 50% inhibition of growth (U. maydis [16]): 2.3 mg/L | cell viability (U. maydis [17]; 30-45 minutes incubation, up to 50 μg/ml): most cells were still alive | killing (U. maydis [17]; after 1 h at 100 μg/ml): ~15% | Z. tritici more sensitive than U. maydis (mitochondrial membrane potential) (Z. tritici mitochondria [18]): ~4 times | antimycin A-induced mROS in the presence of compound (Z. tritici cells [2]): significantly reduced | mROS levels (Z. tritici cells [2]): decreased mROS concentrations; also recorded: significantly reduced mROS | number of depolarised cells (DiBAC4(3)) (U. maydis [19]): increased the number of depolarised cells

CCCCCCCCCCCC[N+](CC)(CC)CC [C12-TEA+, dodecyltriethylammonium]
EC50 on Z. tritici (mitochondrial fragmentation) (Z. tritici mitochondria [1]): 2.38 mg/L

CCCCCCCCCCCC[N+](C)(C)C [C12-TMA+, dodecyltrimethylammonium]
EC50 on Z. tritici (mitochondrial fragmentation) (Z. tritici mitochondria [1]): 3.85 mg/L

CCCCCCCCCCCC[P+](c1ccccc1)(c1ccccc1)c1ccccc1 [C12-TPP+, dodecyltriphenylphosphonium]
EC50 on Z. tritici (mitochondrial fragmentation) (Z. tritici mitochondria [1]): 6.63 mg/L | EC50, human mitochondrial respiration ([7]; C109 fibroblasts): 0.355 mg/L | EC, human mitochondrial organization ([13]; C109 fibroblasts): 5.62 µg/mL | effect on human mitochondrial organization ([13]; C109 fibroblasts, various concentrations): little effect on human mitochondrial organization | mitochondrial depolarisation / inhibition of mitochondrial respiration (Z. tritici mitochondria [18]): showed significant inhibition of mitochondrial respiration

C=C(C)[C@H]1Cc2c(ccc3c2O[C@@H]2COc4cc(OC)c(OC)cc4[C@@H]2C3=O)O1 [rotenone]
mROS levels (Z. tritici cells [2]): decreased mROS levels | more effective in decreasing mROS than C12-G+ and C18-TMA+ (Z. tritici cells [2]): 3-4 times

O=C(O)c1ccccc1O [salicylic acid]
peroxide production / DAB reaction (plant defence) (rice leaves [12]): brown colouring

antimycin A
mROS levels (Z. tritici cells [2]): increase of mROS

octadecyldimethylsulfonium [C18-DMS+]
effect on Daphnia magna (Daphnia magna [3]; at ~1 μg/ml): little effect at this concentration | disease symptom development [4]: Symptom development was inhibited | protection at high concentrations [4]: almost abolished symptom developments | EC50 on Z. tritici (mitochondrial fragmentation) (Z. tritici mitochondria [1]): 1.72 mg/L | mitochondrial potential (TMRM) in Daphnia magna (Daphnia magna [6]): little or no effect on mitochondrial potential | motility of Daphnia magna (Daphnia magna [6]): did not affect the motility | mitochondrial potential [20]: reduce the mitochondrial potential | higher specificity for fungi than for humans (inhibition of mitochondrial respiration) ([7]; Z. tritici vs human cells): ~53 times | early apoptotic cells (CaspACE FITC-VAD-FMK positive, propidium iodide negative) (Z. tritici cells [8]): significant increase in early apoptotic cells | Annexin-V-fluorescein membrane-associated fluorescence in apoptotic cells (Z. tritici cells [21]): only found in C18-DMS+-treated cells | chlorosis or necrosis (phytotoxicity) (rice leaves [10]): none of the SACCs induced chlorosis or necrosis | killing (LIVE/DEAD staining) (Z. tritici [11]; 12-14 h exposure, 10 μg/ml): efficiently killed | chlorosis or necrosis (phytotoxicity) (wheat leaves): none of the SACCs induced chlorosis or necrosis | peroxide production / DAB reaction (plant defence) (rice leaves [12]): much stronger DAB reaction | human mitochondria less sensitive (mitochondrial morphology) ([13]; printed as compared to C12-G+): ~29 times | protection at high concentrations (M. oryzae (strain Guy11)): almost abolished symptom developments | disease symptom development (M. oryzae (strain Guy11)): Symptom development was inhibited | mROS levels (C. albicans [22]): significantly induced | killing (LIVE/DEAD staining) (Candida glabrata): efficiently killed | killing (LIVE/DEAD staining) (C. albicans [23]): efficiently killed | relative toxicity in C. albicans (C. albicans [23]): most toxic | mROS levels (U. maydis [24]): significantly induced | mitochondrial depolarisation / inhibition of mitochondrial respiration (Z. tritici mitochondria [18]): showed significant inhibition of mitochondrial respiration | mROS levels (Z. tritici cells [2]): significantly induced; also recorded: induced mROS production further | mROS levels with complex I inhibitor rotenone (Z. tritici cells [2]): did not increase mROS levels | mROS levels (C. glabrata): significantly induced | mitochondrial potential [25]: reduce the mitochondrial potential
